Where two headings read alike, the source gives them in different places.
How the values were obtained:
[1] = tested on: PTH-induced resorption of 45Ca from chick fetal bones in culture; test: Antiosteoporosis (antiresorptive) activity in vitro, chick fetal bone assay; type: cell-based; details: for T/C ratio: 100 μM, inhibition in PTH-induced resorption of 45Ca
Procedure: Test solutions of the compounds of the present invention are prepared in appropriate solvents in concentration range of 5 millimolar to 400 millimolar, most preferably in concentrations of 20 millimolar. 5 μl of each concentration are used for evaluation of antiresorptive activity in vitro. In control experiments, 5 μl of appropriate solvent is used in lieu of test compound. Femur bones are isolated from chick embryos on day 11 post-ovulation. The adhering soft connective tissue is completely removed. Each femur bone is then placed in a drop of phosphate buffered saline (PBS) and is transferred to BGJb culture medium containing ^45CaCl2 and incubated for 2 h. Labeled femur bones are washed 2-3 times with PBS and transferred to BGJb medium containing parathyroid hormone and cultured for 96 h in the presence or absence of the compound of invention or the vehicle in BGJb medium. Contralateral femur of each fetus serves as corresponding control. Culture medium with the respective treatment in each well is changed after 48 h. On termination of the culture at 96 h, bones are transferred to 0.1 N HCl for 24 h. Radioactivity due to ^45Ca in the spent medium collected at 48 and 96 h of culture and HCl extract at 96 h of culture is quantified by Liquid Scintillation Spectrophotometer in 10 ml of the scintillation fluid. Bone resorbing activity is expressed as percentage of ^45Ca released into the culture medium and the effect of the compound of invention as percent of the corresponding contra-lateral control or T/C ratio as shown below: [formula] Appropriate solvents are selected from solvents like water, normal (physiological) saline, phosphate buffered saline, phosphate buffer, DMSO alone or in a suitable combinations thereof.

[2] = tested on: immature ovariectomized rats; test: Estrogen antagonistic activity (EE induced uterine weight gain); type: in vivo, rat; details: 3 days
Procedure: Twenty-one-day-old immature female rats are bilaterally ovariectomized under light ether anaesthesia and after post-operative rest for 7 days, are randomized into different treatment groups. Each rat receives the compounds of the invention and 0.02 mg/kg dose of 17-alfa-ethynylestradiol in 10% ethanol-distilled water once daily for 3 consecutive days on days 28-30 of age. A separate group of animals-receiving only 17-alfa-ethynylestradiol (0.02 mg/kg) in 10% ethanol-distilled water for similar duration are used for comparison. At autopsy on day 31 of age, vaginal smear of each rat is taken and uterus is carefully excised, gently blotted, weighed and fixed for histology and histomorphometry using image analysis. Inhibition in 17-alfa-ethynylestradiol-induced premature opening of vagina, cornification of vaginal epithelium, increase in uterine fresh weight, total uterine and endometrial area and uterine luminal epithelial cell height are taken as parameters for evaluation of estrogen antagonistic activity.

[3] = tested on: adult female rats; test: Post-coital antifertility activity; type: in vivo, rat; details: for % Efficacy: oral
Procedure: Adult female rats are caged overnight with coeval males of proven fertility and their vaginal smears are checked on the following morning. The day of presence of spermatozoa in the vaginal smear is taken as day 1 of pregnancy. […] Animals of all the groups are autopsied on day 10 post-coitum and number and status of corpora lutea and implantation sites in each rat are recorded. The compounds of the present invention are considered active if there is complete absence of implantations in the uterus of all rats, in comparison to presence of normal implantations in the uterus of rats of vehicle control group.

[4] = biological target: T1, estrogen receptors (Rattus norvegicus, UniProt P06211); test: Relative binding affinity (RBA) to estrogen receptors, 3H-estradiol competition assay; details: rat uterine cytosol, 3H-E2, 18 hrs at 4° C.; relative to 17-beta-estradiol = 100
T1 construct: Aliquot of uterine cytosol (200 μl; 2 uteri per ml) prepared in TEA buffer; from tissue; host or cells: uterine cytosol of immature estradiol-primed 20-21 day old rats
T1 sequence (P06211 1-600): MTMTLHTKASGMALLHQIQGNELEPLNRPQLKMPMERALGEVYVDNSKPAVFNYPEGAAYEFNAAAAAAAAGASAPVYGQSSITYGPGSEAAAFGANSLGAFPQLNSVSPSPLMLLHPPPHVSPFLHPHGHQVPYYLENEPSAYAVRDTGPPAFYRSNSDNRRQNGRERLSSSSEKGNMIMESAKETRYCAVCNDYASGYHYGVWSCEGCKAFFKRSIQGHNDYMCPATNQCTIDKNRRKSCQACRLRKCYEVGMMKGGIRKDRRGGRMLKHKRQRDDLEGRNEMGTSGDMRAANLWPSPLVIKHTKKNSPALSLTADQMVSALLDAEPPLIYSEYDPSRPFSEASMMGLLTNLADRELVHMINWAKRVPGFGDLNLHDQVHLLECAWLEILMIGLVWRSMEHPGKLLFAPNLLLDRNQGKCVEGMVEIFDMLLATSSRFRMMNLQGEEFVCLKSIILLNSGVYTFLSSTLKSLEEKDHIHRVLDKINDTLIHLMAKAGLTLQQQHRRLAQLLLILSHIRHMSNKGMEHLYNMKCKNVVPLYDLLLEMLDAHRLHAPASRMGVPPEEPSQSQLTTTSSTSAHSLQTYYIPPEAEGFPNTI

[5] = tested on: immature ovariectomized rats; test: Estrogen agonistic activity (uterine weight and uterine morphometry); type: in vivo, rat; details: for Percent increase in uterine weight (percent of OVX + vehicle treatment group): 3 days
Procedure: Twenty-one-day-old immature female rats are bilaterally ovariectomized under light ether anaesthesia and, after post-operative rest for 7 days, are randomized into different treatment groups. Each rat receives the compound of the invention once daily for 3 consecutive days on days 28-30 of age. A separate group of animals receiving only the vehicle for similar duration serves as control. At autopsy 24 h after the last treatment on day 31 of age, vaginal smear of each rat is taken and uterus is carefully excised, gently blotted, weighed and fixed for histology and histomorphometry using image analysis. Premature opening of vagina, cornification of vaginal epithelium, increase in uterine fresh weight, total uterine and endometrial area and uterine luminal epithelial cell height are taken as parameters for evaluation of estrogen agonistic activity in comparison to rats of vehicle control group.
For image analysis in estrogen agonistic activity evaluation studies, paraffin sections (6 μm thick) of the uterus stained with haematoxylin and eosin were analysed microscopically. To determine changes in uterine tissue components, areas of whole uterus and endometrium and the thickness of uterine epithelium were measured using a computer-image analysis system (BioVis, Expert Vision, India). Briefly, microscopic images of uterus acquired through a CCD camera were loaded in to the image analysis program and spatially calibrated against a stage micrometer image taken at the same magnification. Using thresholding and line tools, the regions for measurements were selected and the area (mm^2) of whole uterine transection excluding the luminal space, the area (mm^2) of the endometrium only, and the thickness (μm) of luminal epithelial lining were measured. Luminal epithelial thickness data was the Average of measurements made at 6 randomly selected sites are taken as parameters for evaluation.

[6] = tested on: MCF-7 cells; test: cells; type: cell-based, human
Procedure: The procedure is based on the following methods: New colorimetric assay for anticancer drug screening, Skehan et al., J Natn Cancer Inst, 82,1107, 1990 and Feasibility of a high-flux anticancer drug screen using a diverse panel of cultured human tumor cell lines 83,757, 1991.
A fully confluent flask of MCF-7 cells in trypsinized and 10^4 cells/well are plated in a 96 welled flat bottomed plate in 200 μl Minimum Essential Medium (MEM), pH 7.4 and allowed to attach for 24 h at 37° C. in a humidified CO2 incubator. Subsequently, the compound of invention dissolved in DMSO or ethanol is added at a specified concentration and further incubated for 48 h as before. The cells are then fixed in 50 μl cold 50% TCA and incubated for 1 h at 4° C. The supernatant is discarded and the plate is washed five times with deionized water and air dried. 100 μl of 0.4% (w/v) Sulforhodamine B (SRB) in 1% acetic acid is added to each well and incubated at room temperature for 30 minutes. Unbound SRB is removed by five washes with chilled 1% acetic acid and the plate is air dried. 200 μl of unbuffered 10 mM Tris base is added to solublize the bound stain for 5 minutes at room temperature and O.D. is read at 560 nm in a plate reader. The graph is plotted between O.D. and concentration and LC50 is calculated with respect to tamoxifen, which is used as a positive control.

[7] = 0.05 mg/kg daily with 0.02 mg/kg 17-alfa-ethynylestradiol
[8] = 0.025 mg/kg daily, days 1-5 post-coitum
[9] = 0.05 mg/kg daily, days 1-5 post-coitum
[10] = 0.1 mg/kg daily, days 1-7 post-coitum
[11] = 0.1 mg/kg daily, days 1-5 post-coitum
[12] = cultured MCF-7 cells, 48 h, read-out: LC50 (the source's name)

Structure (SMILES)	T/C ratio [1]	Percent inhibition in EE induced uterine weight gain [2, 7] [%]	% Efficacy [3, 9] [%]	% Efficacy ([3]; 0.5 mg/kg, day 1 post-coitum) [%]	% Efficacy ([3]; 1 mg/kg, day 1 post-coitum) [%]	Endometrium Epithelial cell height ([5]; 0.05 mg/kg daily) [μm]	Endometrium Total area ([5]; 0.05 mg/kg daily) [mm^2]	Uterus Total area ([5]; 0.05 mg/kg daily) [mm^2]	Percent increase in uterine weight (percent of OVX + vehicle treatment group) ([5]; 0.05 mg/kg daily) [%]	other results
COc1ccc2c(c1)OC(C)(C)[C@@H](c1ccccc1)[C@@H]2c1ccc(OC[C@H]2CO2)cc1 (relative stereo) [Example number 1]	0.59	–	–	–	–	–	–	–	–	–
CCCCNC[C@@H](O)COc1ccc([C@@H]2c3ccc(OC)cc3OC(C)(C)[C@H]2c2ccccc2)cc1 (relative stereo) [Example number 2, 3R,4R-trans-2,2-dimethyl-3-phenyl-4-(4-[{2R)-(3-n-butylamino-2-hydroxy}propyloxy]-phenyl)-7-methoxychroman]	–	09	100	100	100	8.69	0.08	0.175	38	% Efficacy [3, 8]: 67%; % Efficacy [3, 10]: 100%; MED (prevention of pregnancy) ([3]; rats, administered during the pre-implantation period): 0.05 mg/kg; RBA [4]: 5.45; estrogenic activity at the MED ([5]; at the MED (0.05 mg/kg)): devoid of any estrogenic activity
CCCCNC[C@H](O)COc1ccc([C@@H]2c3ccc(OC)cc3OC(C)(C)[C@H]2c2ccccc2)cc1 (relative stereo) [Example number 7]	0.41	31	100	50	100	6.17	0.13	0.35	11	% Efficacy [3, 8]: Inactive; % Efficacy [3, 11]: 100%
COc1ccc2c(c1)OC(C)(C)[C@@H](c1ccccc1)[C@@H]2c1ccc(OC[C@@H](O)CN2CCCC2)cc1 (relative stereo) [Example number 8]	–	49	100	100	100	17.25	0.35	0.67	53	% Efficacy [3, 11]: 100%; RBA [4]: 6.6
COc1ccc2c(c1)OC(C)(C)[C@@H](c1ccccc1)[C@@H]2c1ccc(OCC2CO2)cc1 (relative stereo) [Example number 10, 3R,4R-Trans-2,2-dimethyl-3-phenyl-4-(4-(2,3-epoxypropyloxy)-phenyl)-7-methoxychroman]	0.79	–	–	–	–	–	–	–	–	–
COc1ccc2c(c1)OC(C)(C)[C@@H](c1ccccc1)[C@@H]2c1ccc(OCC(O)CN2CCCC2)cc1 (relative stereo) [Example number 12, 3R,4R-Trans-2,2-dimethyl-3-phenyl-4-(4-(2-hydroxy-3-pyrrolidinopropyloxy)-phenyl)-7-methoxy chroman]	0.77	–	50	–	–	–	–	–	–	Percent inhibition in EE induced uterine weight gain ([2]; 0.1 mg/kg daily with 0.02 mg/kg 17-alfa-ethynylestradiol): 38%; % Efficacy [3, 10]: 100%; CC50 [6, 12]: 18.2 µM; Endometrium Epithelial cell height ([5]; 0.1 mg/kg daily): 15.93 μm; Endometrium Total area ([5]; 0.1 mg/kg daily): 0.27 mm^2; Uterus Total area ([5]; 0.1 mg/kg daily): 0.56 mm^2; Percent increase in uterine weight (percent of OVX + vehicle treatment group) ([5]; 0.10 mg/kg daily): 120%
COc1ccc2c(c1)OC(C)(C)[C@@H](c1ccccc1)[C@@H]2c1ccc(OCC(O)CN2CCCCC2)cc1 (relative stereo) [Example number 13, 3R,4R-Trans-2,2-dimethyl-3-phenyl-4-(4-(2-hydroxy-3-piperidinopropyloxy)-phenyl)-7-methoxychroman]	–	–	–	–	–	–	–	–	–	CC50 [6, 12]: 17.8 µM
C#C[C@]1(O)CC[C@H]2[C@@H]3CCc4cc(O)ccc4[C@H]3CC[C@@]21C [17-alfa-Ethynylestradiol, reference compound]	–	–	–	–	–	–	–	–	–	Endometrium Epithelial cell height ([5]; 0.01 mg/kg daily): 33.65 μm; Endometrium Total area ([5]; 0.01 mg/kg daily): 0.57 mm^2; Uterus Total area ([5]; 0.01 mg/kg daily): 1.21 mm^2; Percent increase in uterine weight (percent of OVX + vehicle treatment group) ([5]; 0.01 mg/kg daily): 419%
O=C(c1ccc(OCCN2CCCCC2)cc1)c1c(-c2ccc(O)cc2)sc2cc(O)ccc12 [Raloxifene, reference compound]	–	–	–	–	–	–	–	–	–	T/C ([1]; comparator, concentration not given): 0.6
CC/C(=C(\c1ccccc1)c1ccc(OCCN(C)C)cc1)c1ccccc1 [Tamoxifen, reference compound]	–	–	–	–	–	–	–	–	–	CC50 ([6]; Homo sapiens, MCF7, 48 h, read-out: LC50): 14.2 µM

Source: patent US7427686B2, “(3R, 4R)-trans-3, 4-diarylchroman derivatives and a method for the prevention and/or treatment of estrogen dependent diseases” (Counsel of Scientific and Industrial Research, priority 2003, dated 2008)
